In US20230092890A1, “1, 3, 4-Oxadiazole derivative compounds as histone deacetylase 6 inhibitor, and the pharmaceutical composition comprising the same” (Chong Kun Dang Pharmaceutical Corp., priority 2019, published 2023):

Tests used:
HDAC6 human recombinant = biological target: T1, HDAC6 human recombinant (Homo sapiens, UniProt Q9UBN7); test: HDAC enzyme activity inhibition (in vitro), HDAC6 assay; format: biochemical; settings: samples at 0.1, 1, 10, 100 and 1000 nM; 37° C. 60 minutes; fluorescence Ex 390, Em 460; read-out: HDAC6 IC50
T1 construct: purchased Calbiochem 382180
T1 sequence (Q9UBN7 1-1215): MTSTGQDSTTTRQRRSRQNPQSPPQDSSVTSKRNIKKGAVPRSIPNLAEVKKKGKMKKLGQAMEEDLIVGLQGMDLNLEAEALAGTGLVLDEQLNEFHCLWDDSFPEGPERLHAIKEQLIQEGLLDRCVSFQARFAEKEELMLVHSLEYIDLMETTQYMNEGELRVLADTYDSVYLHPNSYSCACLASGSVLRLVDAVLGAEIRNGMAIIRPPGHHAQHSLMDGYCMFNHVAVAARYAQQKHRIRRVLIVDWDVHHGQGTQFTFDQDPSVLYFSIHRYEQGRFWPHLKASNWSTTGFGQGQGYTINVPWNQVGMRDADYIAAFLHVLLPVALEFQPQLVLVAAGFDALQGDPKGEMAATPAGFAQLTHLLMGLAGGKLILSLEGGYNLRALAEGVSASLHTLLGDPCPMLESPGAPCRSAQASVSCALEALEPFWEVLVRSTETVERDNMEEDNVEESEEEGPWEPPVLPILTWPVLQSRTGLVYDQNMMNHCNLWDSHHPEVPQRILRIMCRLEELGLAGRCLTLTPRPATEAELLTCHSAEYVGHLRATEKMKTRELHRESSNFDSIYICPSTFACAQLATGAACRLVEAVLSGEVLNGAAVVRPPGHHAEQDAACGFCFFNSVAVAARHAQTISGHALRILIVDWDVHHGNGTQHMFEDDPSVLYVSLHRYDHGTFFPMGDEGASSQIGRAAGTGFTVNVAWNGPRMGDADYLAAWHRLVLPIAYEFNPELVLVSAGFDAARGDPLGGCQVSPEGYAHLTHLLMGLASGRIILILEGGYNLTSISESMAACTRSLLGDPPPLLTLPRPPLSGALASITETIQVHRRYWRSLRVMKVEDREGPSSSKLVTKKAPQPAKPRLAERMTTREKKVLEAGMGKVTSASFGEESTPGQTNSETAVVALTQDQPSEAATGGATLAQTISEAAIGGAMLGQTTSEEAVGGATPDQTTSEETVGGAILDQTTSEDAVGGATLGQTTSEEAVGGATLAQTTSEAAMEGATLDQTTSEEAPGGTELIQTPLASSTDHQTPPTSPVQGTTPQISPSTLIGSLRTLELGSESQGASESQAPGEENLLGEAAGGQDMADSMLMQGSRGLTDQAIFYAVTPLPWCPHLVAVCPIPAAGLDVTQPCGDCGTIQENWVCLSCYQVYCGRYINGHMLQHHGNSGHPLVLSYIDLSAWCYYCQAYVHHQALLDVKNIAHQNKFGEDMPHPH
Outline: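 HDAC6 human recombinant enzyme with fluorimetric substrate; […]. Reaction 60 min at 37° C, then developer 30 min at 37° C; fluorescence read at Ex 390/Em 460.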

HDAC1 = biological target: T2, HDAC1 (Homo sapiens, UniProt Q13547); test: HDAC enzyme activity inhibition (in vitro), HDAC1 Fluorimetric Drug Discovery Assay Kit; format: biochemical; settings: samples at 100, 1000 and 10000 nM; 37° C. 60 minutes; fluorescence Ex 390, Em 460; read-out: HDAC1 IC50
T2 construct: purchased Enzolifesciences BML-AK511
T2 sequence (Q13547 whole entry): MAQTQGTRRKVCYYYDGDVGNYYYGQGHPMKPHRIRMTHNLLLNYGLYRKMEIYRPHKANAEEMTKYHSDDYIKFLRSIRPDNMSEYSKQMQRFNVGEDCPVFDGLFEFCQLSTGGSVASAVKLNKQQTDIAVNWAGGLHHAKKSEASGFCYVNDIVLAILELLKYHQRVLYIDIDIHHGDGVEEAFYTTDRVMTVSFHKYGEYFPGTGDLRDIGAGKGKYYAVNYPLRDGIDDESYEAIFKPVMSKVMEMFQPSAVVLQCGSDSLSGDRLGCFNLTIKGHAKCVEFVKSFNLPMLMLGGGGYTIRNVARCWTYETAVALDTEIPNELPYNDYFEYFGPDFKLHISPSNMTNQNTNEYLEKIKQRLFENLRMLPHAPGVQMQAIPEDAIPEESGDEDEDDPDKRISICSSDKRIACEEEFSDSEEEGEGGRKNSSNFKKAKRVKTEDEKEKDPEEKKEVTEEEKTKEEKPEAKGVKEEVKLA
Outline: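 Compound incubated with enzyme 60 min at 37° C, then developer 30 min at 37° C; fluorescence read at Ex 390/Em 460. HDAC1 via fluorimetric kit, compounds at 100, 1000 and 10000 nM; HDAC6 human recombinant, compounds at 0.1, 1, 10, 100 and 1000 nM.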

IC50 (HDAC6 human recombinant) | IC50 (HDAC1) | Compound
27 nM | > 10000 nM | O=c1n(Cc2ccc(-c3nnc(C(F)F)o3)cn2)c2cc(Cl)ccc2n1C1CCN(C2COC2)CC1 [Compound 271, 5-chloro-3-((5-(5-(difluoromethyl)-1,3,4-oxadiazole-2-yl)pyridine-2-yl)methyl)-1-(1-(oxetan-3-yl)piperidine-4-yl)-1,3-dihydro-2H-benzo[d]imidazole-2-one]
6 nM | > 10000 nM | O=c1n(CCN2CCOCC2)c2cc(-c3cccc4[nH]ccc34)c(F)cc2n1Cc1ccc(-c2nnc(C(F)F)o2)cn1 [Compound 269, 1-((5-(5-(difluoromethyl)-1,3,4-oxadiazole-2-yl)pyridine-2-yl)methyl)-6-fluoro-5-(1H-indole-4-yl)-3-(2-morpholinoethyl)-1,3-dihydro-2H-benzo[d]imidazole-2-one]
13 nM | > 10000 nM | CCN1CCC[C@H](n2c(=O)n(Cc3ccc(-c4nnc(C(F)F)o4)cn3)c3cc(F)c(-c4ccncc4)cc32)C1 [Compound 300, (S)-1-((5-(5-(difluoromethyl)-1,3,4-oxadiazole-2-yl)pyridine-2-yl)methyl)-3-(1-ethylpiperidine-3-yl)-6-fluoro-5-(pyridine-4-yl)-1,3-dihydro-2H-benzo[d]imidazole-2-one]
70 nM | > 10000 nM | O=c1n(Cc2ccc(-c3nnc(C(F)F)o3)cn2)c2cc(F)c(N3CCN(CC(F)(F)F)CC3)cc2n1C1COC1 [Compound 325]
19 nM | > 10000 nM | CN1CC[C@H](n2c(=O)n(Cc3ccc(-c4nnc(C(F)F)o4)cn3)c3cc(F)c(-c4cccc5[nH]ccc45)cc32)C1 [Compound 270, (S)-1-((5-(5-(difluoromethyl)-1,3,4-oxadiazole-2-yl)pyridine-2-yl)methyl)-6-fluoro-5-(1H-indole-4-yl)-3-(1-methylpyrrolidine-3-yl)-1,3-dihydro-2H-benzo[d]imidazole-2-one]
399 nM | > 10000 nM | CC(C)(C)OC(=O)N1CCC(c2ccc3c(c2)oc(=O)n3Cc2ccc(-c3nnc(C(F)F)o3)cn2)CC1 [Compound 307, tert-butyl 4-(3-((5-(5-(difluoromethyl)-1,3,4-oxadiazole-2-yl)pyridine-2-yl)methyl)-2-oxo-2,3-dihydrobenzo[d]oxazole-6-yl)piperidine-1-carboxylate]
118 nM | > 10000 nM | O=c1oc2cc(C3CCN(C4CCC4)CC3)ccc2n1Cc1ccc(-c2nnc(C(F)F)o2)cn1 [Compound 315, 6-(1-cyclobutylpiperidine-4-yl)-3-((5-(5-(difluoromethyl)-1,3,4-oxadiazole-2-yl)pyridine-2-yl)methyl)benzo[d]oxazole-2(3H)-one]

More lines, now with the values behind:

Compound | IC50 (HDAC6 human recombinant) | IC50 (HDAC1)
Cn1c(=O)n(Cc2ccc(-c3nnc(C(F)F)o3)cc2)c2cc(F)ccc21 [Compound 144, 3-(4-(5-(difluoromethyl)-1,3,4-oxadiazole-2-yl)benzyl)-5-fluoro-1-methyl-1,3-dihydro-2H-benzo[d]imidazole-2-one] | 77 nM | > 10000 nM
CS(=O)(=O)N1CCC(n2c(=O)n(Cc3ccc(-c4nnc(C(F)F)o4)cc3F)c3cc(C(F)(F)F)ccc32)CC1 [Compound 196, 3-(4-(5-(difluoromethyl)-1,3,4-oxadiazole-2-yl)-2-fluorobenzyl)-1-(1-(methylsulfonyl)piperidine-4-yl)-5-(trifluoromethyl)-1,3-dihydro-2H-benzo[d]imidazole-2-one] | 126 nM | > 10000 nM
O=c1n(Cc2ccc(-c3nnc(C(F)F)o3)cn2)c2cc(F)ccc2n1C1CCN(C2CCC3(CC2)OCCO3)CC1 [Compound 58, 1-(1-(1,4-dioxaspiro[4.5]decane-8-yl)piperidine-4-yl)-3-((5-(5-(difluoromethyl)-1,3,4-oxadiazole-2-yl)pyridine-2-yl)methyl)-5-fluoro-1,3-dihydro-2H-benzo[d]imidazole-2-one] | 28 nM | > 10000 nM
O=c1n(Cc2ccc(-c3nnc(C(F)F)o3)cn2)c2ccccc2n1C1CCN(C2COC2)CC1 [Compound 78, 1-((5-(5-(difluoromethyl)-1,3,4-oxadiazole-2-yl)pyridine-2-yl)methyl)-3-(1-(oxetan-3-yl)piperidine-4-yl)-1,3-dihydro-2H-benzo[d]imidazole-2-one] | 79 nM | > 10000 nM
O=c1n(Cc2ccc(-c3nnc(C(F)F)o3)cc2F)c2ccccc2n1C1CCN(C2COC2)CC1 [Compound 16, 1-(4-(5-(difluoromethyl)-1,3,4-oxadiazole-2-yl)-2-fluorobenzyl)-3-(1-(oxetan-3-yl)piperidine-4-yl)-1,3-dihydro-2H-benzo[d]imidazole-2-one] | 239 nM | > 10000 nM
CN1CCC(c2ccc3c(c2)n(C2CCN(C)CC2)c(=O)n3Cc2ccc(-c3nnc(C(F)F)o3)cn2)CC1 [Compound 199, 1-((5-(5-(difluoromethyl)-1,3,4-oxadiazole-2-yl)pyridine-2-yl)methyl)-3,5-bis(1-methylpiperidine-4-yl)-1,3-dihydro-2H-benzo[d]imidazole-2-one] | 175 nM | > 10000 nM
CN1CCC(n2c(=O)n(Cc3ccc(-c4nnc(C(F)F)o4)cn3)c3cc(Cl)ccc32)CC1 [Compound 213, 5-chloro-3-((5-(5-(difluoromethyl)-1,3,4-oxadiazole-2-yl)pyridine-2-yl)methyl)-1-(1-methylpiperidine-4-yl)-1,3-dihydro-2H-benzo[d]imidazole-2-one] | 14 nM | > 10000 nM
CN1CCC(n2c(=O)n(Cc3ccc(-c4nnc(C(F)F)o4)cc3F)c3cc(Cl)c(Cl)cc32)CC1 [Compound 87, 5,6-dichloro-1-(4-(5-(difluoromethyl)-1,3,4-oxadiazole-2-yl)-2-fluorobenzyl)-3-(1-methylpiperidine-4-yl)-1,3-dihydro-2H-benzo[d]imidazole-2-one] | 63 nM | > 10000 nM
COCCN1Cc2ccccc2N(Cc2ccc(-c3nnc(C(F)F)o3)cn2)C1=O [Compound 31, 1-((5-(5-(difluoromethyl)-1,3,4-oxadiazole-2-yl)pyridine-2-yl)methyl)-3-(2-methoxyethyl)-3,4-dihydroquinazoline-2(1H)-one] | 108 nM | > 10000 nM
CN1CCC(n2c(=O)n(Cc3ccc(-c4nnc(C(F)F)o4)cc3)c3ccc(Cl)cc32)CC1 [Compound 99, 5-chloro-1-(4-(5-(difluoromethyl)-1,3,4-oxadiazole-2-yl)benzyl)-3-(1-methylpiperidine-4-yl)-1,3-dihydro-2H-benzo[d]imidazole-2-one] | 37 nM | > 10000 nM
CN1CCC(n2c(=O)n(Cc3ccc(-c4nnc(C(F)F)o4)cc3F)c3ccccc32)C1 (stereo not shown) [Compound 20, 1-(4-(5-(difluoromethyl)-1,3,4-oxadiazole-2-yl)-2-fluorobenzyl)-3-(1-methylpyrrolidine-3-yl)-1,3-dihydro-2H-benzo[d]imidazole-2-one] | 285 nM | > 10000 nM
CC(=O)N1CCC(n2c(=O)n(Cc3ccc(-c4nnc(C(F)F)o4)cc3F)c3ccccc32)CC1 [Compound 17, 1-(1-acetylpiperidine-4-yl)-3-(4-(5-(difluoromethyl)-1,3,4-oxadiazole-2-yl)-2-fluorobenzyl)-1,3-dihydro-2H-benzo[d]imidazole-2-one] | 214 nM | > 10000 nM
CN1CCC(n2c(=O)n(Cc3ccc(-c4nnc(C(F)F)o4)cc3F)c3ncccc32)CC1 [Compound 103, 3-(4-(5-(difluoromethyl)-1,3,4-oxadiazole-2-yl)-2-fluorobenzyl)-1-(1-methylpiperidine-4-yl)-1,3-dihydro-2H-imidazo[4,5-b]pyridine-2-one] | 342 nM | > 10000 nM
